From patent US8653075B2, “Therapeutic methods employing substituted piperidines which are CCR3 antagonists” (Boehringer Ingelheim International GmbH, priority 2009, dated 2014)

Target: T1, human chemokine receptor CCR3 (Homo sapiens, UniProt P51677)
T1 construct: expressed in transfected cells; host or cells: K562 cell line (hCCR3-C1 cells), membrane preparation
T1 sequence (P51677 1-355): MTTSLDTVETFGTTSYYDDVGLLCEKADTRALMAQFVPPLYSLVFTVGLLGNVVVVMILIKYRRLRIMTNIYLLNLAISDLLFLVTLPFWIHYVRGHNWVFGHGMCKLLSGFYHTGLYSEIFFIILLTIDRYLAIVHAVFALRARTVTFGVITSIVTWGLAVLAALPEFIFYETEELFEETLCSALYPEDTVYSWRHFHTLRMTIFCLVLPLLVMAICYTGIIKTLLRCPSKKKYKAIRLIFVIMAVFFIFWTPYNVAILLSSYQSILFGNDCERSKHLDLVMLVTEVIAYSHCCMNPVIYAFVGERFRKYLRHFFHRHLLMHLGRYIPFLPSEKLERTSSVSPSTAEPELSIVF
Test: CCR3 receptor binding assay (SPA, 125I-eotaxin-1 displacement, hCCR3-C1 K562 cell membranes)
Details: human Eotaxin-1 at human CCR3-Rezeptor; for inhibition at 1 µM: 1 μM test compound, read-out: CCR3 % inh @ 1 μM; for Ki: dose range 0.1 to 10000 nM
Experimental: The CCR3 receptor binding test is based on a K562 cell line (leukemia myelogenic blast cells) transfected with the human chemokine receptor CCR3 (hCCR3-C1 cells). The cell membranes were prepared by disrupting the hCCR3-C1 cells by […]. The preparation was centrifuged at 400 g 4° C. for 30 min. The supernatant was transferred into fresh tubes followed by a second centrifugation at 48000 g, 4° C. for 1 h. The membranes were re-suspended in the SPA incubation buffer (25 mM HEPES, 25 mM MgCl2 6×H2O, 1 mM CaCl2 2×H2O) without bovine serum albumin and homogenized by passing through a single use needle (Terumo, 23Gx1″). The membranes were stored in aliquots at −80° C.
The CCR3 receptor binding assay was performed in a Scintillation Proximity Assay (SPA) design with the radioligand recombinant human ^125Iodine-eotaxin-1. Cell membranes of hCCR3 C1 cells were again homogenized by passing through a single use needle (Terumo, 23Gx1″) and diluted in SPA incubation buffer in suitable concentrations (0.5-10 μg protein/well) in 96 well microtiter plates (1450-514, Perkin Elmer). The SPA assay was set up in the SPA incubation buffer with a final volume of 200 μl and final concentration of 25 mM HEPES, 25 mM MgCl2 6×H2O, 1 mM CaCl2 2×H2O and 0.1% bovine serum albumin. The SPA assay mixture contained 60 μl of the membrane suspension, 80 μl of Wheat Germ Agglutinin coated PVT beads (organic scintillator, GE Healthcare, RPNQ-0001) 0.2 mg/well), 40 μl of recombinant human ^125Jodine-eotaxin-1 (Biotrend), diluted in SPA buffer to a final concentration of 30.000 dpm per well, and 20 μl of the test compound (dissolved in DMSO dilutions). The SPA assay mixture was incubated for 2 h at room temperature. Bound radioactivity was determined with a scintillation counter (Micro Beta “Trilux”, Wallac). Included were controls for total binding (no displacer added, Bo) and non-specific binding (NSB) by adding unlabelled recombinant human Eotaxin-1 (Biotrend, Cat #300-21) or a reference compound.
Determination of the affinity of a test compound was calculated by subtraction of the non-specific binding (NSB) from the total binding (Bo) or the binding in the presence of the test compound (B) at a given compound concentration. […] The Bo-NSB value was set to 0% inhibition.
% inhibition and Ki values are (human Eotaxin-1 at human CCR3-Rezeptor): […]

Compound | inhibition at 1 µM [%] | Ki [nM]
Cc1cc(CN2CCC(N3C(=O)CC[C@@H]3C(=O)Nc3cc(-n4cccn4)ccn3)CC2)ccc1Cl [Example 101] | 95 | 45
Cc1cc(C)n(-c2ccnc(NC(=O)[C@H]3CCC(=O)N3C3CCN(Cc4ccc(Cl)c(C)c4)CC3)c2)n1 [Example 102] | 100 | 19
Cc1cc(CN2CCC(N3C(=O)CC[C@@H]3C(=O)N(C)c3ccccn3)CC2)ccc1Cl [Example 103] | 54 | 1400
Cc1cc(CN2CCC(N3C(=O)CC[C@@H]3C(=O)N(C)c3ccccc3)CC2)ccc1Cl [Example 104] | 24 | 2400
Cc1cc(CN2CCC(N3C(=O)CC[C@@H]3C(=O)Nc3cc(C(=O)N(C)C)cc(C(=O)N(C)C)c3)CC2)ccc1Cl [Example 105] | 99 | 5
CNC(=O)c1cc(NC(=O)[C@H]2CCC(=O)N2C2CCN(Cc3ccc(Cl)c(C)c3)CC2)cc(C(=O)N(C)C)c1 [Example 106] | 100 | 3
Cc1cc(CN2CCC(N3C(=O)CC[C@@H]3C(=O)Nc3cc(C(N)=O)cc(C(=O)N(C)C)c3)CC2)ccc1Cl [Example 107] | 99 | 13
COC(=O)c1cc(NC(=O)[C@H]2CCC(=O)N2C2CCN(Cc3ccc(Cl)c(C)c3)CC2)cc(C(=O)N(C)C)c1 [Example 108] | 98 | 4
Cc1cc(NC(=O)[C@H]2CCC(=O)N2C2CCN(Cc3ccc(Cl)c(C)c3)CC2)cc(-c2nnnn2C)c1 [Example 114] | 99 | 4
Cc1cc(C(=O)N(C)C)cc(NC(=O)[C@H]2CCC(=O)N2C2CCN(Cc3ccc(Cl)c(Cl)c3)CC2)n1 [Example 115] | 80 | 18
Cc1cc(CN2CCC(N3C(=O)OC[C@H]3C(=O)Nc3cccc(C#N)c3)CC2)ccc1Cl [Example 116] | 93 | 47
Cc1cc(CN2CCC(N3C(=O)OC[C@H]3C(=O)Nc3cc(C4CC4)nn3C)CC2)ccc1Cl [Example 117] | 98 | 17
Cc1cc(CN2CCC(N3C(=O)OC[C@H]3C(=O)Nc3ccc4ncsc4c3)CC2)ccc1Cl [Example 118] | 94 | 40
CNC(=O)c1cccc(NC(=O)[C@@H]2COC(=O)N2C2CCN(Cc3ccc(Cl)c(C)c3)CC2)c1 [Example 119] | 87 | 81
Cc1cc(CN2CCC(N3C(=O)N(C)C[C@@H]3C(=O)Nc3cccc(-c4ccncc4)c3)CC2)ccc1Cl [Example 120] | 95 | 35
Cc1cc(CN2CCC(N3C(=O)N(C)C[C@@H]3C(=O)Nc3cccc(-c4cscn4)c3)CC2)ccc1Cl [Example 121] | 98 | 21
CNc1nc(-c2cccc(NC(=O)[C@H]3CN(C)C(=O)N3C3CCN(Cc4ccc(Cl)c(C)c4)CC3)c2)no1 [Example 122] | 95 | 30
Cc1cc(CN2CCC(N3C(=O)N(C)C[C@@H]3C(=O)Nc3cccc(-c4cc[nH]n4)c3)CC2)ccc1Cl [Example 123] | 95 | 34
Cc1cc(CN2CCC(N3C(=O)N(C)C[C@H]3C(=O)Nc3cc(C(C)(C)C)no3)CC2)ccc1Cl [Example 124] | 93 | 41
Cc1cc(CN2CCC(N3C(=O)N(C)C[C@H]3C(=O)Nc3cccc(-c4cscn4)c3)CC2)ccc1Cl [Example 125] | 97 | 58
Cc1cc(CN2CCC(N3C(=O)N(C)C[C@H]3C(=O)Nc3cccc(-c4nc[nH]n4)c3)CC2)ccc1Cl [Example 126] | 89 | 71

Compound | inhibition at 1 µM [%] | Ki [nM]
CNC(=O)c1cccc(NC(=O)[C@@H]2CN(C)C(=O)N2C2CCN(Cc3ccc(Cl)c(C)c3)CC2)c1 [Example 127] | 90 | 81
CNc1nc(-c2cccc(NC(=O)[C@@H]3CN(C)C(=O)N3C3CCN(Cc4ccc(Cl)c(C)c4)CC3)c2)no1 [Example 128] | 87 | 96
Cc1cc(CN2CCC(N3C(=O)N(C)C[C@H]3C(=O)Nc3ccno3)CC2)ccc1Cl [Example 129] | 70 | 334
Cc1cc(CN2CCC(N3C(=O)N(C)C[C@@H]3C(=O)Nc3cc(C4CC4)nn3C)CC2)ccc1Cl [Example 130] | 91 | 77
CNC(=O)c1cccc(NC(=O)[C@H]2CN(C)C(=O)N2C2CCN(Cc3ccc(Cl)c(C)c3)CC2)c1 [Example 131] | 89 | 85
Cc1cc(C(=O)N2CCCC2)cc(NC(=O)[C@H]2CCC(=O)N2C2CCN(Cc3ccc(Cl)c(C)c3)CC2)n1 [Example 132] | 102 | 1
Cc1cc(CN2CCC(N3C(=O)CC[C@@H]3C(=O)Nc3cccc(C(=O)N(C)C(C)C)c3)CC2)ccc1Cl [Example 133] | 100 | 3
Cc1cc(CN2CCC(N3C(=O)CC[C@@H]3C(=O)Nc3cccc(C(=O)NC4CCC4)c3)CC2)ccc1Cl [Example 134] | 101 | 3
Cc1cc(C(=O)N(C)C)cc(NC(=O)[C@H]2CCC(=O)N2C2CCN(Cc3ccc(Cl)c(C)c3)CC2)n1 [Example 135] | 101 | 3
Cc1cc(CN2CCC(N3C(=O)CC[C@@H]3C(=O)Nc3cccc(C(=O)NCC4CC4)c3)CC2)ccc1Cl [Example 136] | 100 | 4
Cc1cc(CN2CCC(N3C(=O)CC[C@@H]3C(=O)Nc3cccc(C(=O)NCC(C)C)c3)CC2)ccc1Cl [Example 137] | 101 | 4
CCC(C)N(C)C(=O)c1cccc(NC(=O)[C@H]2CCC(=O)N2C2CCN(Cc3ccc(Cl)c(C)c3)CC2)c1 (stereo partly shown) [Example 138] | 101 | 4
Cc1cc(CN2CCC(N3C(=O)CC[C@@H]3C(=O)Nc3cc(C(=O)N4CCCC4)ccn3)CC2)ccc1Cl [Example 139] | 101 | 5
Cc1cc(C(=O)N2CCOCC2)cc(NC(=O)[C@H]2CCC(=O)N2C2CCN(Cc3ccc(Cl)c(C)c3)CC2)n1 [Example 140] | 98 | 6
Cc1cc(CN2CCC(N3C(=O)CC[C@@H]3C(=O)Nc3cccc(C(=O)N(C)C)c3)CC2)ccc1Cl [Example 141] | 94 | 6
CNC(=O)c1cc(C)cc(NC(=O)[C@H]2CCC(=O)N2C2CCN(Cc3ccc(Cl)c(C)c3)CC2)c1 [Example 142] | 100 | 17
CCC(C)NC(=O)c1cccc(NC(=O)[C@H]2CCC(=O)N2C2CCN(Cc3ccc(Cl)c(C)c3)CC2)c1 (stereo partly shown) [Example 143] | 99 | 7
Cc1cc(CN2CCC(N3C(=O)CC[C@@H]3C(=O)Nc3cccc(C(=O)N(C)C4CC4)c3)CC2)ccc1Cl [Example 144] | 100 | 7
Cc1cc(CN2CCC(N3C(=O)CC[C@@H]3C(=O)Nc3cccc(C(=O)NCC(F)F)c3)CC2)ccc1Cl [Example 145] | 99 | 8
Cc1cc(CN2CCC(N3C(=O)CC[C@@H]3C(=O)Nc3cccc(C(=O)N4CCCC4)c3)CC2)ccc1Cl [Example 146] | 100 | 8
